Measurements reported in patent publication US7544714B2, “Lipid-amino acid conjugates and methods of use” (University of Massachusetts, priority 2004, dated 2009).

Tested on: 3T3 L1 fibroblasts
Experiment: RT-PCR analysis of adipocyte specific transcripts as secondary test of adipocyte differentiation
Type: cell-based
Settings: with 10 μg/ml insulin
Protocol: N-arachidonoyl-D-alanine is subjected to the Oil Red O assay, discussed in more detail supra. In the assay, 3T3 L1 fibroblasts are cultured in DMEM supplemented with 10% calf serum. Two days after confluence, cells are treated with 0.1% DMSO (vehicle), 20-100 μM N-arachidonoyl-D-alanine in vehicle, or 1 μM GW347845 (Cobb et al., J. Med. Chem., 41:5055-5069, 1998) in vehicle. Each of the three treatments is administered to the cells with 10 μg/ml of insulin. After seven days of treatment with GW347845 and 10-14 days of treatment with N-arachidonoyl-D-alanine, cells are fixed and stained with Oil Red O. Red staining indicates lipid droplets in the cytoplasm. RT-PCR analysis of expressed genes is performed as a secondary test of adipocyte differentiation. Messenger RNA from fibroblasts is harvested and RT-PCR is performed to amplify adipocyte specific transcripts, e.g., PPARγ2 and aP2, or the transcript of a ubiquitous housekeeping gene, e.g., GAPDH. PCR products are analyzed on 1% agarose gel and stained with ethidium bromide. […] Expression of the housekeeping gene GAPDH is assayed to ensure equal expression in all samples.

[1] = 20-100 μM, 10-14 days of treatment

SMILES | PPARγ2 transcript induction relative to vehicle-treated cells (RT-PCR) (1 μM, seven days of treatment) | aP2 transcript induction relative to vehicle-treated cells (RT-PCR) (1 μM, seven days of treatment) | PPARγ2 transcript induction relative to vehicle-treated cells (RT-PCR) [1] | aP2 transcript induction relative to vehicle-treated cells (RT-PCR) [1]
COC(=O)c1ccccc1N[C@@H](Cc1ccc(OCCc2nc(-c3ccccc3)oc2C)cc1)C(=O)O [GW347845] | induced significantly | induced significantly | – | –
CCCCC/C=C\C/C=C\C/C=C\C/C=C\CCCC(=O)N[C@H](C)C(=O)O [N-arachidonoyl-D-alanine] | – | – | induced significantly | induced significantly
